Legend:
Test in all cases: CEREP radioligand binding
5-HT1B (h) = 5-HT1B (h) (Homo sapiens, UniProt P28222); conditions: radioligand [^125I]-CYP (+ 30 μM isoproterenol)
Text: (§1) Supplement Table1.docx, table 3: Supplementary Table S3. RG7774 binding to non-CB1R/CB2R receptors, ion channels, transporters, and enzymes (CEREP, Celle l’Evescault, France; http://www.cerep.fr). | column: % inhibition of control SB (n = 2)

5-HT5A (h) = 5-HT5A (h) (Homo sapiens, UniProt P47898); conditions: radioligand [^3H]-LSD
Text: as §1

5-HT6 (h) = 5-HT6 (h) (Homo sapiens, UniProt P50406); conditions: radioligand [^3H]-LSD
Text: as §1

5-HT7 (h) = 5-HT7 (h) (Homo sapiens, UniProt P34969); conditions: radioligand [^3H]-LSD
Text: as §1

A1 (h) = A1 (h) (Homo sapiens, UniProt P30542); conditions: radioligand [^3H]-DPCPX
Text: as §1

A2A (h) = A2A (h) (Homo sapiens, UniProt P29274); conditions: radioligand [^3H]-CGS 21680
Text: as §1

B2 (h) = B2 (h) (Homo sapiens, UniProt P30411); conditions: radioligand [^3H]-bradykinin
Text: as §1

BZD (central) = conditions: radioligand [^3H]-flunitrazepam
Text: as §1

BZD (peripheral) = BZD (peripheral) (Rattus norvegicus, UniProt P16257); conditions: radioligand [^3H]-PK 11195
Text: as §1

Beta 1 (h) = Beta 1 (h) (Homo sapiens, UniProt P08588); conditions: radioligand [^3H](-)CGP 12177
Text: as §1

Beta 2 (h) = Beta 2 (h) (Homo sapiens, UniProt P07550); conditions: radioligand [^3H](-)CGP 12177
Text: as §1

CB1 (h) = CB1 (h) (Homo sapiens, UniProt P21554); conditions: radioligand [^3H]-CP 55940
Text: as §1

CCK2 (CCKB) (h) = CCK2 (CCKB) (h) (Homo sapiens, UniProt P32239); conditions: radioligand [^125I]-CCK-8s
Text: as §1

CXCR2 = CXCR2 (Homo sapiens, UniProt P25025); conditions: radioligand [^125I]-IL-8
Text: as §1

[1] = tested on: Ca2+ channel (L, verapamil site) (phenylalkylamine); conditions: radioligand [^3H]-D888
Text: as §1

Cl- channel (GABA-gated) = conditions: radioligand [^35S]-TBPS
Text: as §1

D1 (h) = D1 (h) (Homo sapiens, UniProt P21728); conditions: radioligand [^3H]-SCH 23390
Text: as §1

D2S (h) = D2S (h) (Homo sapiens, UniProt P14416); conditions: radioligand [^3H]-methyl-spiperone
Text: as §1

D5 = D5 (Homo sapiens, UniProt P21918); conditions: radioligand [^3H]-SCH 23390
Text: as §1

Dopamine transporter (h) = Dopamine transporter (h) (Homo sapiens, UniProt Q01959); conditions: radioligand [^3H]-BTCP
Text: as §1

EP2 (h) = EP2 (h) (Homo sapiens, UniProt P43116); conditions: radioligand [^3H]-PGE2
Text: as §1

ETA (h) = ETA (h) (Homo sapiens, UniProt P25101); conditions: radioligand [^125I]-endothelin-1
Text: as §1

ETB (h) = ETB (h) (Homo sapiens, UniProt P24530); conditions: radioligand [^125I]-endothelin-1
Text: as §1

GABA (non-selective) = conditions: radioligand [^3H]-GABA
Text: as §1

KV channel = conditions: radioligand [^125I]-α-dendrotoxin
Text: as §1

M3 (h) = M3 (h) (Homo sapiens, UniProt P20309); conditions: radioligand [^3H]-4-DAMP
Text: as §1

M4 (h) = M4 (h) (Homo sapiens, UniProt P08173); conditions: radioligand [^3H]-4-DAMP
Text: as §1

MT1 (ML1A) (h) = MT1 (ML1A) (h) (Homo sapiens, UniProt P48039); conditions: radioligand [^125I]-2-iodomelatonin
Text: as §1

NK3 (h) = NK3 (h) (Homo sapiens, UniProt P29371); conditions: radioligand [^3H]-SR 142801
Text: as §1

NTS1 (NT1) (h) = NTS1 (NT1) (h) (Homo sapiens, UniProt P30989); conditions: radioligand [^125I]-Tyr3-neurotensin
Text: as §1

[2] = target: Norepinephrine transporter (h) (Homo sapiens, UniProt P23975); conditions: radioligand [^3H]-nisoxetine
Text: as §1

P2Y = conditions: radioligand [^35S]-dATPαS
Text: as §1

PAC1 (PACAP) (h) = PAC1 (PACAP) (h) (Homo sapiens, UniProt P41586); conditions: radioligand [^125I]-PACAP1-27
Text: as §1

SKCa channel = conditions: radioligand [^125I]-apamin
Text: as §1

Y2 (h) = Y2 (h) (Homo sapiens, UniProt P49146); conditions: radioligand [^125I]-peptide YY
Text: as §1

sst (non-selective) = conditions: radioligand [^125I]-Tyr^11-somatostatin-14
Text: as §1

κ(KOP) = κ(KOP) (Rattus norvegicus, UniProt P34975); conditions: radioligand [^3H]-U 69593
Text: as §1

μ(MOP) (h) = μ(MOP) (h) (Homo sapiens, UniProt P35372); conditions: radioligand [^3H]-DAMGO
Text: as §1

Sequence of CCK2 (CCKB) (h) (P32239 whole entry): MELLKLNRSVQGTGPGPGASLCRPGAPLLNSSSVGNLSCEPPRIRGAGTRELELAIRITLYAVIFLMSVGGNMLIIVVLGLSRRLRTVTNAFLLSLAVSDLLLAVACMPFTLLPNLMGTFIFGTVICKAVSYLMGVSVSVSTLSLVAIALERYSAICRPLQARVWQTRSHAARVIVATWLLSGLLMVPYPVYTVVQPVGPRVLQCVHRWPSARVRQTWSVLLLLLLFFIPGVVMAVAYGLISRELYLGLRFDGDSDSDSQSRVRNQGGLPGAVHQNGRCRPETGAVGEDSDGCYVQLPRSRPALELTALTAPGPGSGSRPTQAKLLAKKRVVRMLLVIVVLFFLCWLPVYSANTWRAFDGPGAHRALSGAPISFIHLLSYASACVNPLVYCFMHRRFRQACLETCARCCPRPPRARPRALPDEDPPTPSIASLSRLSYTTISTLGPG
Sequence of PAC1 (PACAP) (h) (P41586 21-468): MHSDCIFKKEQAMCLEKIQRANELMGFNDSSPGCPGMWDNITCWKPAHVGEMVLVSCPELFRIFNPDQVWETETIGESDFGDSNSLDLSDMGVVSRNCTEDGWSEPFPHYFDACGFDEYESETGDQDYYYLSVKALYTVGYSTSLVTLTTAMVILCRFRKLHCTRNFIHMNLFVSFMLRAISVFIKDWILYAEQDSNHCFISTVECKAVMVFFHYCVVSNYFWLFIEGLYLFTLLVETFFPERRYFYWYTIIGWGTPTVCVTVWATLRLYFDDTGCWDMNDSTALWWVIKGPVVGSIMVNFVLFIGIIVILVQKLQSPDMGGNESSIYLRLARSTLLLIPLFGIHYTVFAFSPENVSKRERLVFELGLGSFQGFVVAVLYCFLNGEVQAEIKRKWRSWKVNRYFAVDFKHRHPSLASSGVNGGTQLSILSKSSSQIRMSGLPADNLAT
Sequence of MT1 (ML1A) (h) (P48039 whole entry): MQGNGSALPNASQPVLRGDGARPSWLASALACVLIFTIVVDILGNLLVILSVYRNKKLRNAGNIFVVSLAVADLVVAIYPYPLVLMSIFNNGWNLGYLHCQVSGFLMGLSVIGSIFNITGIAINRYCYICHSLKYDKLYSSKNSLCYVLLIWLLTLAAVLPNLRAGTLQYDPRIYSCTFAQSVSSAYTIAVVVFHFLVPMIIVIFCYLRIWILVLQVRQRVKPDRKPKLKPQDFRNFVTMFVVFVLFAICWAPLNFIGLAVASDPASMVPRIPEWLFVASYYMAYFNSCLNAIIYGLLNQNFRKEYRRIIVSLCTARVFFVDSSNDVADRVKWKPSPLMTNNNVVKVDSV
Sequence of A2A (h) (P29274 whole entry): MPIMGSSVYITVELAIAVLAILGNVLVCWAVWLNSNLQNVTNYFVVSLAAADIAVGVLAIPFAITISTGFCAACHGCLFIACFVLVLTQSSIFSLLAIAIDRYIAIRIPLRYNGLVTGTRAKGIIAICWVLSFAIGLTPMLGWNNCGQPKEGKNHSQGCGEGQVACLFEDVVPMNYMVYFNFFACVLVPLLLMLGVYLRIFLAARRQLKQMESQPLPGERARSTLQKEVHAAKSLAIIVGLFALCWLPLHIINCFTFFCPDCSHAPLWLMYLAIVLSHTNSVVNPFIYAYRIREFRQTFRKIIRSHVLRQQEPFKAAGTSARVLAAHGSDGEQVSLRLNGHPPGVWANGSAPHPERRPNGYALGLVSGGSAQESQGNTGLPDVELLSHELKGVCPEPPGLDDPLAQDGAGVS
Sequence of M4 (h) (P08173 whole entry): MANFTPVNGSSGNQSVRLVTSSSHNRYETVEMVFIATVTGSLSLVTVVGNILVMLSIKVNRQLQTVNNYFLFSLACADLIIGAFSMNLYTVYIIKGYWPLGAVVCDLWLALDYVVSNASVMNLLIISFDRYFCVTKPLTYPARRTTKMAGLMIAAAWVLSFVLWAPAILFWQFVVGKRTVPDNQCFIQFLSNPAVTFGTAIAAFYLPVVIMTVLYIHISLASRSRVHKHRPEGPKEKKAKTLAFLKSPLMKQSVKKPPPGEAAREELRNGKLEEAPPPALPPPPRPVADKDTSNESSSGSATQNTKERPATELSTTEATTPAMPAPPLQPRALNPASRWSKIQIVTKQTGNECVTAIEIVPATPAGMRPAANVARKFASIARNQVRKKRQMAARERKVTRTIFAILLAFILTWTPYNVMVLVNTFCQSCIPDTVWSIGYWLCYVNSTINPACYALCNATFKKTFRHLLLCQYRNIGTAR
Sequence of κ(KOP) (P34975 whole entry): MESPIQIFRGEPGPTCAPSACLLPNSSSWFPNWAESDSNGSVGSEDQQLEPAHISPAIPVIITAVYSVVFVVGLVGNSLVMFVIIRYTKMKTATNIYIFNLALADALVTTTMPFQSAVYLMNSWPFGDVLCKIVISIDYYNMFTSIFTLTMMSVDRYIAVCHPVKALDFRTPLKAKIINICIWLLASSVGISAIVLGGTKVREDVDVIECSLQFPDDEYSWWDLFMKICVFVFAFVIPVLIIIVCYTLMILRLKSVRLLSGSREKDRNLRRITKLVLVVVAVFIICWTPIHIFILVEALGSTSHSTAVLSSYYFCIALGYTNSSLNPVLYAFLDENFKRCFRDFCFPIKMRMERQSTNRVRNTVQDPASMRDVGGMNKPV
Sequence of NK3 (h) (P29371 whole entry): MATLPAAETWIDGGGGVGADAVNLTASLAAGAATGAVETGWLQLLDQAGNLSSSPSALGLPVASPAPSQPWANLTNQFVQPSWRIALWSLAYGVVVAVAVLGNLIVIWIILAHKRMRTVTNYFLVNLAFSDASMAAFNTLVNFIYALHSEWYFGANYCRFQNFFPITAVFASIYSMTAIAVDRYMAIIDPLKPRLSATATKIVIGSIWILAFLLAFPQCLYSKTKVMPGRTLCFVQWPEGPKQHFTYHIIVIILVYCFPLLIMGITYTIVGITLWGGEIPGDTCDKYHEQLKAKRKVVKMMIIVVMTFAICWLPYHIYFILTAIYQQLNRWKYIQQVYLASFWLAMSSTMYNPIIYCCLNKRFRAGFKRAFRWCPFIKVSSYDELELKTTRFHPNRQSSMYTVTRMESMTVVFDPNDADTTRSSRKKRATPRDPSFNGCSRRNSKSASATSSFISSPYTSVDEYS
Sequence of 5-HT6 (h) (P50406 whole entry): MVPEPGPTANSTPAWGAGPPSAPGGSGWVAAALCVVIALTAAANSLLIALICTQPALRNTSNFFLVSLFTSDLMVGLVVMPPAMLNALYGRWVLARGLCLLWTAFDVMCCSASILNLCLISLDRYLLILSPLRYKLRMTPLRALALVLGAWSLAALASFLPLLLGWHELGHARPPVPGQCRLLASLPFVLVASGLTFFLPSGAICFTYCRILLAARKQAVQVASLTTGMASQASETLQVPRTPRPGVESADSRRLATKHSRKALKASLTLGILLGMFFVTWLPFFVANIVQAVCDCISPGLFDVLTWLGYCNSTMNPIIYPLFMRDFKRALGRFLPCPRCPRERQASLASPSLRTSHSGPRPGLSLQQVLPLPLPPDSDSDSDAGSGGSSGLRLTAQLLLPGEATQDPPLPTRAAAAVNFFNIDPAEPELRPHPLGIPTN
Sequence of Y2 (h) (P49146 whole entry): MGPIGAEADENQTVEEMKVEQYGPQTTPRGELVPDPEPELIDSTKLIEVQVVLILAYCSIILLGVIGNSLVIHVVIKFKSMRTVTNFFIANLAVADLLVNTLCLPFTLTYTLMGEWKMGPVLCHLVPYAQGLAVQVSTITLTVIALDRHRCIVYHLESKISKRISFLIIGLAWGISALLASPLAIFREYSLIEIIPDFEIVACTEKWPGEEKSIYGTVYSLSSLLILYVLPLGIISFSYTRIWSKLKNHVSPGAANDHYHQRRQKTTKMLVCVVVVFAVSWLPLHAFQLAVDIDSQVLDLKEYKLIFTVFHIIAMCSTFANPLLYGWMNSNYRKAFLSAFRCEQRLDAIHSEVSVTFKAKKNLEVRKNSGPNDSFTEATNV
Sequence of B2 (h) (P30411 whole entry): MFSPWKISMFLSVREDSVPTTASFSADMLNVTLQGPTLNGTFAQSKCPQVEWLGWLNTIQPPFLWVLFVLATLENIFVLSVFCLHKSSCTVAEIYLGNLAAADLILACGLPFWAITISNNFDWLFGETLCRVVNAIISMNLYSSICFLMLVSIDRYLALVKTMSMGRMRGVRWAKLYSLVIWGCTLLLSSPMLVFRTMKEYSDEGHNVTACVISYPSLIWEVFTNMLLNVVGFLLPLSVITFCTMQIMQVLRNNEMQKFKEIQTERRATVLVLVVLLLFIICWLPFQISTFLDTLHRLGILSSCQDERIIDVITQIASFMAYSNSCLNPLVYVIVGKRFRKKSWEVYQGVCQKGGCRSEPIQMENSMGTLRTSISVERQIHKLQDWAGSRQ
Sequence of EP2 (h) (P43116 whole entry): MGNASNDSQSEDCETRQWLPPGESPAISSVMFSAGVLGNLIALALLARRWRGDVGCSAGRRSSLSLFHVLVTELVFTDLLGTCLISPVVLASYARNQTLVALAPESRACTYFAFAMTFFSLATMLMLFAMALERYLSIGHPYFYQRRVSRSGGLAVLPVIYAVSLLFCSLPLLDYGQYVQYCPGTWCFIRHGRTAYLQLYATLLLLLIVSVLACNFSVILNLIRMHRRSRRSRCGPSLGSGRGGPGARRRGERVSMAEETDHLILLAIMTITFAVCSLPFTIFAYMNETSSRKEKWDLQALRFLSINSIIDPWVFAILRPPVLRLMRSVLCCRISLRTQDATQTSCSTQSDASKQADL
Sequence of A1 (h) (P30542 whole entry): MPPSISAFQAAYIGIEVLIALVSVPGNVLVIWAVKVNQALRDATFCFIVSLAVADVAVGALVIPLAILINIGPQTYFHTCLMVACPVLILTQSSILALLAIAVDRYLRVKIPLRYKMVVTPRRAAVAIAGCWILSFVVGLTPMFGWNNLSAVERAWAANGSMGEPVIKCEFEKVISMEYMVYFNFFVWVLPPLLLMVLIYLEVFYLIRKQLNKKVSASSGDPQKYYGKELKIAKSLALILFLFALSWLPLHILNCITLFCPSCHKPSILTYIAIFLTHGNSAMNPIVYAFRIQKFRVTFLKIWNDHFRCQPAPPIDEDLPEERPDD

Cn1nnnc1Cn1nnc2c(N3CC[C@H](O)C3)nc(C(C)(C)C)nc21 [RG7774, (S)-1-(5-tert-butyl-3-[(1-methyl-1H-tetrazol-5-yl)methyl]-3H-[1,2,3]triazolo[4,5-d]pyrimidin-7-yl)pyrrolidin-3-ol]
% inhibition of control SB (n = 2) (5-HT1B (h)): –10.6%
% inhibition of control SB (n = 2) (5-HT5A (h)): 2.2%
% inhibition of control SB (n = 2) (5-HT6 (h)): 3.5%
% inhibition of control SB (n = 2) (5-HT7 (h)): 3.9%
% inhibition of control SB (n = 2) (A1 (h)): 3.6%
% inhibition of control SB (n = 2) (A2A (h)): 12.4%
% inhibition of control SB (n = 2) (B2 (h)): –1.6%
% inhibition of control SB (n = 2) (BZD (central)): –0.7%
% inhibition of control SB (n = 2) (BZD (peripheral)): –12.0%
% inhibition of control SB (n = 2) (Beta 1 (h)): –3.1%
% inhibition of control SB (n = 2) (Beta 2 (h)): –1.3%
% inhibition of control SB (n = 2) (CB1 (h)): –0.8%
% inhibition of control SB (n = 2) (CCK2 (CCKB) (h)): –7.6%
% inhibition of control SB (n = 2) (CXCR2): –7.7%
% inhibition of control SB (n = 2) [1]: 3.0%
% inhibition of control SB (n = 2) (Cl- channel (GABA-gated)): 17.2%
% inhibition of control SB (n = 2) (D1 (h)): –1.0%
% inhibition of control SB (n = 2) (D2S (h)): 12.0%
% inhibition of control SB (n = 2) (D5): –2.0%
% inhibition of control SB (n = 2) (Dopamine transporter (h)): 4.9%
% inhibition of control SB (n = 2) (EP2 (h)): –13.4%
% inhibition of control SB (n = 2) (ETA (h)): –10.4%
% inhibition of control SB (n = 2) (ETB (h)): –8.1%
% inhibition of control SB (n = 2) (GABA (non-selective)): –16.1%
% inhibition of control SB (n = 2) (KV channel): –5.7%
% inhibition of control SB (n = 2) (M3 (h)): –6.7%
% inhibition of control SB (n = 2) (M4 (h)): –8.9%
% inhibition of control SB (n = 2) (MT1 (ML1A) (h)): 7.9%
% inhibition of control SB (n = 2) (NK3 (h)): 8.2%
% inhibition of control SB (n = 2) (NTS1 (NT1) (h)): –4.7%
% inhibition of control SB (n = 2) [2]: 5.4%
% inhibition of control SB (n = 2) (P2Y): 2.3%
% inhibition of control SB (n = 2) (PAC1 (PACAP) (h)): –1.3%
% inhibition of control SB (n = 2) (SKCa channel): 8.6%
% inhibition of control SB (n = 2) (Y2 (h)): –3.6%
% inhibition of control SB (n = 2) (sst (non-selective)): –22.2%
% inhibition of control SB (n = 2) (κ(KOP)): –12.7%
% inhibition of control SB (n = 2) (μ(MOP) (h)): –2.5%
